The values below come from patent US20040097591A1, “Use of selective progesterone receptor modulators for the treatment of androgen deficiency” (priority 2002, published 2004).

The target of assay [1] is T1, progesterone receptor (Oryctolagus cuniculus, UniProt P06186).
T1 construct: effects of compounds at the progesterone receptor using a rabbit model; from tissue; host or cells: living rabbit (whole-animal model)
T1 sequence (P06186 1-930): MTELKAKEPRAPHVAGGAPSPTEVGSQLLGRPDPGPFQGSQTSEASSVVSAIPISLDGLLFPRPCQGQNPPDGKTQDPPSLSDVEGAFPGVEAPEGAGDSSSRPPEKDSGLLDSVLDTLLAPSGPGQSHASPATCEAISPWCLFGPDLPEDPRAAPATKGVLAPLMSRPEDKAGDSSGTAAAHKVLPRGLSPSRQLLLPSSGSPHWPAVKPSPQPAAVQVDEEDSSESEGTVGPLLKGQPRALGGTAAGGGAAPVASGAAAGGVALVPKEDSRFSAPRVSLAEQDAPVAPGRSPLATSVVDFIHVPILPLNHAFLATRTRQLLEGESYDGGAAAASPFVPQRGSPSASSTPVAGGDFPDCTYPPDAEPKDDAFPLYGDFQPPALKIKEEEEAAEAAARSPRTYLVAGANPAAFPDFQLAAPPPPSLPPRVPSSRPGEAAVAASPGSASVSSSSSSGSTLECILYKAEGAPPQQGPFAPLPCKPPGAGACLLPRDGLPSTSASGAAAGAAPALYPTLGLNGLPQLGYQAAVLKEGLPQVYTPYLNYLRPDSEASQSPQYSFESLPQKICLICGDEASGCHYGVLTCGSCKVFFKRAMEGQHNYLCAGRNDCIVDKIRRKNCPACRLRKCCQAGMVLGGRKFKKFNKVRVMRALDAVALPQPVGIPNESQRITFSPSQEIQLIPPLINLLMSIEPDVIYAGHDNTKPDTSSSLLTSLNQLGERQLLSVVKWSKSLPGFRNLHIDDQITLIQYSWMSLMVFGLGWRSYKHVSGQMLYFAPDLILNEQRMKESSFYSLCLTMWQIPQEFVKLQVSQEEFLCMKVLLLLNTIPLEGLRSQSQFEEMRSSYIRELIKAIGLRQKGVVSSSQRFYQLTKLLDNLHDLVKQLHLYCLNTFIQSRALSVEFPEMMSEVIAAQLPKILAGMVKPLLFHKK
To be noted: rabbit model, scale of 0-4; agonistic/antagonistic effect at the progesterone receptor; cited from earlier work.

Assay [2] deals with testosterone levels. Put plainly: Phase II study of J867: total testosterone levels over 12 weeks. To be noted: for mean testosterone concentration increase over the treatment period: 12 week treatment, female subjects aged 18-49. The assay is classed as in vivo, female subjects. On the procedure: (§1) The effect of SPRMs on testosterone levels and SHBG levels was studied using various doses of J867 over three months. The study was a phase II, multi-center, randomized, double blind, parallel group study of J867 at doses of 5 mg, 10 mg, and 25 mg once a day (QD)compared to placebo. Approximately 120 female subjects between the ages of 18 and 49 were enrolled in the study and randomly assigned to one of the four dosing groups above. During the 12 week study, testosterone and SHBG were measured at screening visits during weeks 2, 4, 8, and 12 of the study.
FIG. 1 is a graph showing total testosterone levels as a function of time during the study. […] Testosterone concentrations were relatively constant for the group receiving placebo. […] Over the treatment period, the mean testosterone concentrations for the 5 mg QD group increased approximately 7-15 ng/dL; the mean increase for the 10 mg QD group was approximately 15-21 ng/dL; and the mean concentrations observed following treatment with 25 mg QD increased approximately 16-25 ng/dL.

Assay [3] relates to SHBG levels. Put plainly: Phase II study of J867: SHBG levels over 12 weeks. Type of assay: in vivo, female subjects. On the procedure: as §1
SHBG levels were also measured at weeks 2, 4, 8, and 12 of the study.

As to `CC(=O)[C@H]1CC[C@H]2[C@@H]3CCC4=CC(=O)CC[C@]4(C)[C@H]3CC[C@]12C` [progesterone], in assay [1], the McPhail score is recorded as 4.

Regarding `CC#C[C@]1(O)CC[C@H]2[C@@H]3CCC4=CC(=O)CCC4=C3[C@@H](c3ccc(N(C)C)cc3)C[C@@]21C` [RU486, mifepristone], the McPhail score result in assay [1] is “less than 0.5”.

As for `COC[C@]1(OC)CC[C@H]2[C@@H]3CCC4=CC(=O)CCC4=C3[C@@H](c3ccc(/C=N/O)cc3)C[C@@]21C` [J867, [4-[17β-Methoxy-17α-(methoxymethyl)-3-oxoestra-4,9-dien-11β-yl]benzaldehyd-(1E)-oxim]], the “mean testosterone concentration increase over the treatment period” value in assay [2] (5 mg QD) is 7 to 15 ng/dL; in assay [2] (10 mg QD) it was 15 to 21 ng/dL; in assay [2] (25 mg QD), 16 to 25 ng/dL. Moreover, in assay [2] (all doses (5, 10, 25 mg QD)), the “total testosterone levels (FIG. 1)” value is given as “testosterone levels increased with all doses”. Besides, in assay [2] (all three dose groups (5, 10, 25 mg QD)), the “visit with largest mean increase of testosterone from baseline” value is “week 2 visit”. In addition, in assay [2] (all three dose groups, week 12), the “testosterone concentrations at the end of the study” value is “still elevated above baseline”. Besides, the “mean level of SHBG during treatment” value in assay [3] (5 mg QD) is “remained relatively constant”; in assay [3] (10 mg QD) it was “decreased from baseline”; in assay [3] (25 mg QD), “decreased from baseline”. The “SHBG during the treatment period of three months (FIG. 2)” value in assay [3] (weeks 2, 4, 8, 12, doses not separated) is recorded as “a decrease in SHBG”.
